24 molecules from patent US9549932B2, “2-(morpholin-4-yl)-1,7-naphthyridines” (BAYER PHARMA AKTIENGESELLSCHAFT, priority 2014, dated 2017) can be followed below.

For this assay, the target named is full-length human ATR protein (Homo sapiens (Human), UniProt Q13535). Kind of assay: Binding assay ATR (TR-FRET tracer displacement). The following applies: tracer A, TR-FRET; read-out: ATR binding (tracer A) IC50. The method in brief: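 Full-length human GST-ATR co-purified with ATRIP, pre-complexed 30 min at 22 °C with anti-GST-Tb antibody, then pre-bound with compound 10 min. Tracer A or B added (2 µl of 100 nM solution), 30 min at 22 °C.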
full-length human ATR protein, sequence (Q13535 other isoform, or with tags, fused parts or gaps): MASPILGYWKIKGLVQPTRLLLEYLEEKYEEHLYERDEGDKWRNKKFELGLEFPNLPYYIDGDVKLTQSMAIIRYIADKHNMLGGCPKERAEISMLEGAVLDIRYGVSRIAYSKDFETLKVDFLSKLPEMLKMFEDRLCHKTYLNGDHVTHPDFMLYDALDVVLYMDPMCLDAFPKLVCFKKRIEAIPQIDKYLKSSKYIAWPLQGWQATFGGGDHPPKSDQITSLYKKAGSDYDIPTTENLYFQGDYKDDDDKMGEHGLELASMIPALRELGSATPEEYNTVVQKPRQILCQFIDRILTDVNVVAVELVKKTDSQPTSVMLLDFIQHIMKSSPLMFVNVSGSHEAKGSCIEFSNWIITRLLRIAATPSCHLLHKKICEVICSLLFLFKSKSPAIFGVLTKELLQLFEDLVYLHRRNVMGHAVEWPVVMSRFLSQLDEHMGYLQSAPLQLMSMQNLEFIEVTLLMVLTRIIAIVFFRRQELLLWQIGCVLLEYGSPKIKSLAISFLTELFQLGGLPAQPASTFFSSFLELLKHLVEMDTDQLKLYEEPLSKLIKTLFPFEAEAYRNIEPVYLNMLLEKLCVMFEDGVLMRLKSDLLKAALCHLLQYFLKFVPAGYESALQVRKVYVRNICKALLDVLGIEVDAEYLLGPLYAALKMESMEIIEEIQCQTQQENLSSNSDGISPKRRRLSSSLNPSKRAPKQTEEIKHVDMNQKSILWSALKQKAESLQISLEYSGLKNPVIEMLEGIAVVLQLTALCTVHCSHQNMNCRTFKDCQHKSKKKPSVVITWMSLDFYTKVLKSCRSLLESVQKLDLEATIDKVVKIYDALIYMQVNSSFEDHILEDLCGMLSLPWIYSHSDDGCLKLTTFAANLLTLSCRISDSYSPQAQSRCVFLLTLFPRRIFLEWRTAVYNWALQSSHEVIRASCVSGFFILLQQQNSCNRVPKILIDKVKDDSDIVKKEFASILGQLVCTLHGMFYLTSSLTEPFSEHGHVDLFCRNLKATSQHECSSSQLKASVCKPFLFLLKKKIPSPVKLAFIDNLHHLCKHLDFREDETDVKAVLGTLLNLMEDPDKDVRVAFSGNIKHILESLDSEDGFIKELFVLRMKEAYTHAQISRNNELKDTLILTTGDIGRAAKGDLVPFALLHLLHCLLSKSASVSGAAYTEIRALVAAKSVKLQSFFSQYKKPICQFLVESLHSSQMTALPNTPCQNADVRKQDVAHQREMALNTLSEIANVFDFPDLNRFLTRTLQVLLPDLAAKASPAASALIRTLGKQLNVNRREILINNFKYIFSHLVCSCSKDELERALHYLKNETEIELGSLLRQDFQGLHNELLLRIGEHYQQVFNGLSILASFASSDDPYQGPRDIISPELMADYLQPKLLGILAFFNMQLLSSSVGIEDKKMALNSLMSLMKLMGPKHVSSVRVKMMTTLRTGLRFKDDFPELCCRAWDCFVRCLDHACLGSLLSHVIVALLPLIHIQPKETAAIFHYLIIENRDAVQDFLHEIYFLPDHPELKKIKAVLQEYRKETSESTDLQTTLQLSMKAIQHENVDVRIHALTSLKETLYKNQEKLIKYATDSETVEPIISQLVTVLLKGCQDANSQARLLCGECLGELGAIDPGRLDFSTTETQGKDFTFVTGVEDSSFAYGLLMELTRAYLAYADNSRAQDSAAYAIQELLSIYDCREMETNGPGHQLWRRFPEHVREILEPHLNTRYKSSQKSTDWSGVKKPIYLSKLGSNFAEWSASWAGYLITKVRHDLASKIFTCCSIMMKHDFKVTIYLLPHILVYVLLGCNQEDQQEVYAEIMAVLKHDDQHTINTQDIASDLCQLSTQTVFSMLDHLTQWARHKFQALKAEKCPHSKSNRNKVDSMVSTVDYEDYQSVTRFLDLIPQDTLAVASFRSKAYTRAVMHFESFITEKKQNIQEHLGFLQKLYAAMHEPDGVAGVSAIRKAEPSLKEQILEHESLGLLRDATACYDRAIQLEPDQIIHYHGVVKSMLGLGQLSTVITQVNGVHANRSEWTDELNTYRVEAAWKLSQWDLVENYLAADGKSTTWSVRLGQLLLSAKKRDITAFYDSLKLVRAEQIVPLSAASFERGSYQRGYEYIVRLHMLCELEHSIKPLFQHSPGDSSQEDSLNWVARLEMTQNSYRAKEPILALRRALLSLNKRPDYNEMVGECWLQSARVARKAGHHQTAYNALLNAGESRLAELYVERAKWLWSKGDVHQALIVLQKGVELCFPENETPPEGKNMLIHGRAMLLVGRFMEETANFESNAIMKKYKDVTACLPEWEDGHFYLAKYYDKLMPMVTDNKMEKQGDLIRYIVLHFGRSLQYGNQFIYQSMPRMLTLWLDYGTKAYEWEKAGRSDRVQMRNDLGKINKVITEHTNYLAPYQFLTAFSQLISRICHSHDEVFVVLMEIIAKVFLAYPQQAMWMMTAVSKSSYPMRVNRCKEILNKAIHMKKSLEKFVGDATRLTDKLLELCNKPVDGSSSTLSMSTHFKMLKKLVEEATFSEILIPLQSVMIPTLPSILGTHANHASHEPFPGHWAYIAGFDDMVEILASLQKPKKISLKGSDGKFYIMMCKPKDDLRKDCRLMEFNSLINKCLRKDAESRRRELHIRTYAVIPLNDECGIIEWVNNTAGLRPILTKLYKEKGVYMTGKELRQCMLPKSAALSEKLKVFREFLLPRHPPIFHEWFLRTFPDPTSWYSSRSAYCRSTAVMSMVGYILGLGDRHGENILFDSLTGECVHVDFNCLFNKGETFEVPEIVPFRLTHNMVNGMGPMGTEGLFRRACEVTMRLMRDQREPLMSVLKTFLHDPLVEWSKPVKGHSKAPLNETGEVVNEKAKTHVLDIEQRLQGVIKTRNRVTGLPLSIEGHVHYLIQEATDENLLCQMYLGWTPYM
full-length human ATR protein, sequence (Q8WXE1 other isoform, or with tags, fused parts or gaps partner): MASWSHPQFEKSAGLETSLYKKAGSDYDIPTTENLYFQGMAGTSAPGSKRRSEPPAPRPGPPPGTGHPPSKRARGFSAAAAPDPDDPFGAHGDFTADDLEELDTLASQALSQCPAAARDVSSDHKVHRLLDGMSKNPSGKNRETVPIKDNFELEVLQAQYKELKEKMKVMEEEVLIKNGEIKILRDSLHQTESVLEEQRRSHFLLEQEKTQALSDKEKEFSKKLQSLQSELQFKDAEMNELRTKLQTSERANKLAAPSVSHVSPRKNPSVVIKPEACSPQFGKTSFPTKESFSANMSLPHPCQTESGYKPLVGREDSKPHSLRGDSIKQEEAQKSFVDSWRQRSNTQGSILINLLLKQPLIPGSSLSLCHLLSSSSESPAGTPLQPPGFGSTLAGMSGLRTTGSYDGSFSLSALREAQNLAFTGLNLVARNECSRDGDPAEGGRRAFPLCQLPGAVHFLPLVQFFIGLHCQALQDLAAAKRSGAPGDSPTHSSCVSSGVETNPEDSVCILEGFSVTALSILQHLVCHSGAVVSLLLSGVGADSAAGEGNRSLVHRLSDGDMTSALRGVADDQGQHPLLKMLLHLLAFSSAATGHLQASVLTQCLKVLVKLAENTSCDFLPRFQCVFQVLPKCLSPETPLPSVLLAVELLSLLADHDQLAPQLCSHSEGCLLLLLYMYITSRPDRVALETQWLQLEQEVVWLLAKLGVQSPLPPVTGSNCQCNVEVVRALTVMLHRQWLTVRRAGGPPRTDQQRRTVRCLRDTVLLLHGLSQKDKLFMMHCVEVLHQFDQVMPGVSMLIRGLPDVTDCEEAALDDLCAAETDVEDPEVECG
Background: In TR-FRET formats the signal depends on donor and acceptor labels being close together.

In general, IC50 refers to the concentration that inhibits the measured activity by half. Take `CSc1ccc(-c2cc(N3CCOC[C@H]3C)nc3c(-c4ccn[nH]4)nccc23)c(C)n1` [Example 115, 4-[2-methyl-6-(methylsulfanyl)pyridin-3-yl]-2-[(3R)-3-methylmorpholin-4-yl]-8-(1H-pyrazol-5-yl)-1,7-naphthyridine]: the IC50 is 7.44 nM. The same measure for `Cc1nc(S(C)(=N)=O)ccc1-c1cc(N2CCOC[C@H]2C)nc2c(-c3ccn[nH]3)nccc12` (stereo partly drawn) [Example 116, 4-[2-methyl-6-(S-methylsulfonimidoyl)pyridin-3-yl]-2-[(3R)-3-methylmorpholin-4-yl]-8-(1H-pyrazol-5-yl)-1,7-naphthyridine]: 9.51 nM; for `CCCn1nccc1-c1cc(N2CCOC[C@H]2C)nc2c(-c3ccn[nH]3)nccc12` [Example 117, 2-[(3R)-3-methylmorpholin-4-yl]-4-(1-propyl-1H-pyrazol-5-yl)-8-(1H-pyrazol-5-yl)-1,7-naphthyridine]: 8.16 nM. The same measure for `C[C@@H]1COCCN1c1cc(-c2cnc3n2CCC3)c2ccnc(-c3ccn[nH]3)c2n1` [Example 118, 4-(6,7-dihydro-5H-pyrrolo[1,2-a]imidazol-3-yl)-2-[(3R)-3-methylmorpholin-4-yl]-8-(1H-pyrazol-5-yl)-1,7-naphthyridine]: 10.1 nM; for `CCn1nc(C(F)(F)F)cc1-c1cc(N2CCOC[C@H]2C)nc2c(-c3ccn[nH]3)nccc12` [Example 119, 4-[1-ethyl-3-(trifluoromethyl)-1H-pyrazol-5-yl]-2-[(3R)-3-methylmorpholin-4-yl]-8-(1H-pyrazol-5-yl)-1,7-naphthyridine]: 11.7 nM; for `COC(=O)c1ccc(-c2cc(N3CCOC[C@H]3C)nc3c(-c4ccn[nH]4)nccc23)[nH]1` [Example 120, Methyl 5-{2-[(3R)-3-methylmorpholin-4-yl]-8-(1H-pyrazol-5-yl)-1,7-naphthyridin-4-yl}-1H-pyrrole-2-carboxylate]: 13.1 nM.

For `C[C@@H]1COCCN1c1cc(-c2ccns2)c2ccnc(-c3ccn[nH]3)c2n1` [Example 121, 2-[(3R)-3-methylmorpholin-4-yl]-8-(1H-pyrazol-5-yl)-4-(1,2-thiazol-5-yl)-1,7-naphthyridine], the IC50 is 17.4 nM. The same measure for `C[C@@H]1COCCN1c1cc(-c2ccccc2N(C)C)c2ccnc(-c3ccn[nH]3)c2n1` [Example 122, N,N-dimethyl-2-{2-[(3R)-3-methylmorpholin-4-yl]-8-(1H-pyrazol-5-yl)-1,7-naphthyridin-4-yl}aniline]: 19.4 nM; for `C[C@@H]1COCCN1c1cc(-c2ccc(F)cc2F)c2ccnc(-c3ccn[nH]3)c2n1` [Example 123, 4-(2,4-difluorophenyl)-2-[(3R)-3-methylmorpholin-4-yl]-8-(1H-pyrazol-5-yl)-1,7-naphthyridine]: 21.3 nM; for `CC(C)n1nccc1-c1cc(N2CCOC[C@H]2C)nc2c(-c3ccn[nH]3)nccc12` [Example 124, 4-(1-isopropyl-1H-pyrazol-5-yl)-2-[(3R)-3-methylmorpholin-4-yl]-8-(1H-pyrazol-5-yl)-1,7-naphthyridine]: 13.6 nM. The result for `CCS(=O)(CC)=Nc1cc(N2CCOC[C@H]2C)nc2c(-c3ccn[nH]3)nccc12` [Example 126, 4-{[diethyl(oxido)-λ^6-sulfanylidene]amino}-2-[(3R)-3-methylmorpholin-4-yl]-8-(1H-pyrazol-5-yl)-1,7-naphthyridine] reads 21.5 nM; that for `CC(C)COP(C)(=O)c1cc(N2CCOC[C@H]2C)nc2c(-c3ccn[nH]3)nccc12` (stereo partly drawn) [Example 127, Isobutyl methyl{2-[(3R)-3-methylmorpholin-4-yl]-8-(1H-pyrazol-5-yl)-1,7-naphthyridin-4-yl}phosphinate], 25.5 nM; that for `C[C@@H]1COCCN1c1cc(C(C)(C)O)c2ccnc(-c3ccn[nH]3)c2n1` [Example 128, 2-{2-[(3R)-3-methylmorpholin-4-yl]-8-(1H-pyrazol-5-yl)-1,7-naphthyridin-4-yl}propan-2-ol], 32.6 nM. The result for `CCC(O)(CC)c1cc(N2CCOC[C@H]2C)nc2c(-c3ccn[nH]3)nccc12` [Example 129, 3-{2-[(3R)-3-methylmorpholin-4-yl]-8-(1H-pyrazol-5-yl)-1,7-naphthyridin-4-yl}pentan-3-ol] reads 35.3 nM.

Regarding `C[C@@H]1COCCN1c1cc(-c2cncc(Cl)c2)c2ccnc(-c3ccn[nH]3)c2n1` [Example 130, 4-(5-chloropyridin-3-yl)-2-[(3R)-3-methylmorpholin-4-yl]-8-(1H-pyrazol-5-yl)-1,7-naphthyridine], the IC50 came to 21.6 nM.

On to `C[C@@H]1COCCN1c1cc(-c2ccc(F)cc2N)c2ccnc(-c3ccn[nH]3)c2n1` [Example 131, 5-fluoro-2-{2-[(3R)-3-methylmorpholin-4-yl]-8-(1H-pyrazol-5-yl)-1,7-naphthyridin-4-yl}aniline], for which the IC50 came to 23.1 nM.

Regarding `C[C@@H]1COCCN1c1cc(-c2cccc(S(C)(=O)=O)c2F)c2ccnc(-c3ccn[nH]3)c2n1` [Example 132, 4-[2-fluoro-3-(methylsulfonyl)phenyl]-2-[(3R)-3-methylmorpholin-4-yl]-8-(1H-pyrazol-5-yl)-1,7-naphthyridine], the half-inhibitory concentration (IC50) was determined as 23.7 nM. The result for `C[C@@H]1COCCN1c1cc(-c2ccnn2C2COC2)c2ccnc(-c3ccn[nH]3)c2n1` [Example 133, 2-[(3R)-3-methylmorpholin-4-yl]-4-[1-(oxetan-3-yl)-1H-pyrazol-5-yl]-8-(1H-pyrazol-5-yl)-1,7-naphthyridine] reads 27 nM; that for `C[C@@H]1COCCN1c1cc(-c2ccc(N3CCCC3)cc2F)c2ccnc(-c3ccn[nH]3)c2n1` [Example 134, 4-[2-fluoro-4-(pyrrolidin-1-yl)phenyl]-2-[(3R)-3-methylmorpholin-4-yl]-8-(1H-pyrazol-5-yl)-1,7-naphthyridine], 34.3 nM; that for `COCc1noc(C)c1-c1cc(N2CCOC[C@H]2C)nc2c(-c3ccn[nH]3)nccc12` [Example 135, 4-[3-(methoxymethyl)-5-methyl-1,2-oxazol-4-yl]-2-[(3R)-3-methylmorpholin-4-yl]-8-(1H-pyrazol-5-yl)-1,7-naphthyridine], 32.9 nM. For the molecule `Cc1nnc(-c2cc(N3CCOC[C@H]3C)nc3c(-c4ccn[nH]4)nccc23)o1` [Example 136, 2-[(3R)-3-methylmorpholin-4-yl]-4-(5-methyl-1,3,4-oxadiazol-2-yl)-8-(1H-pyrazol-5-yl)-1,7-naphthyridine], the IC50 turned out to be 35.8 nM. The same measure for `C[C@@H]1COCCN1c1cc(N=S2(=O)CCCC2)c2ccnc(-c3ccn[nH]3)c2n1` [Example 137, N-{2-[(3R)-3-methylmorpholin-44-yl]-8-(1H-pyrazol-5-yl)-1,7-naphthyridin-4-yl}tetrahydro-1H-1λ^4-thiophen-1-imine 1-oxide]: 26 nM; for `C[C@@H]1COCCN1c1cc(N=S(C)(=O)c2ccc(F)cc2)c2ccnc(-c3ccn[nH]3)c2n1` (stereo partly drawn) [Example 138, 4-{[(4-fluorophenyl)(methyl)oxido-λ^6-sulfanylidene]amino}-2-[(3R)-3-methylmorpholin-4-yl]-8-(1H-pyrazol-5-yl)-1,7-naphthyridine]: 29 nM. The same measure for `C[C@@H]1COCCN1c1cc(N=S(C)(=O)c2ccccc2F)c2ccnc(-c3ccn[nH]3)c2n1` (stereo partly drawn) [Example 139, 4-{[(2-fluorophenyl)(methyl)oxido-λ^6-sulfanylidene]amino}-2-[(3R)-3-methylmorpholin-4-yl]-8-(1H-pyrazol-5-yl)-1,7-naphthyridine]: 41.7 nM.
